From ChEMBL document CHEMBL2390950, “Dieckol, a SARS-CoV 3CL(pro) inhibitor, isolated from the edible brown algae Ecklonia cava” (Bioorg Med Chem, 2013)
Activity calls are given as the source filed them. The calls are words filed in the database; no cut-off is given here.

Assays:
[1] = biological target: Replicase polyprotein 1ab (Severe acute respiratory syndrome-related coronavirus) (UniProt P0C6X7)
[2] = biological target: Replicase polyprotein 1ab (Severe acute respiratory syndrome-related coronavirus) (UniProt P0C6X7); assay: (§1) Inhibition of SARS coronavirus 3C-like protease cis-cleavage activity transfected in african green monkey Vero cells using SAVLQSGFRK as substrate after 5 hrs by luciferase reporter gene assay; format: cell-based
[3] = biological target: T1, Replicase polyprotein 1ab (Severe acute respiratory syndrome-related coronavirus, UniProt P0C6X7); assay: as §1; format: cell-based
[4] = system: Vero; assay: (§2) Cytotoxicity against african green monkey Vero cells assessed as cell death by MTT assay; format: cell-based; conditions: chlorocebus sabaeus, vero
[5] = Selectivity index, ratio of CC50 for african green monkey Vero cells to IC50 for SARS coronavirus 3C-like protease cis-cleavage activity transfected in african green monkey Vero cells; format: functional
[6] = biological target: Replicase polyprotein 1ab (Severe acute respiratory syndrome-related coronavirus) (UniProt P0C6X7); remark: listed apart in the source
[7] = biological target: T1, Replicase polyprotein 1ab
[8] = biological target: T1, Replicase polyprotein 1ab; remark: listed apart in the source
[9] = biological target: Replicase polyprotein 1ab (Severe acute respiratory syndrome-related coronavirus) (UniProt P0C6X7); assay: (§3) Binding affinity to SARS coronavirus 3C-like protease by SPR analysis
[10] = biological target: T1, Replicase polyprotein 1ab; assay: as §3
[11] = biological target: Replicase polyprotein 1ab (Severe acute respiratory syndrome-related coronavirus) (UniProt P0C6X7); remark: listed apart in the source
[12] = biological target: Replicase polyprotein 1ab (Severe acute respiratory syndrome-related coronavirus) (UniProt P0C6X7); remark: listed apart in the source
[13] = biological target: Replicase polyprotein 1ab (Severe acute respiratory syndrome-related coronavirus) (UniProt P0C6X7); remark: listed apart in the source
[14] = biological target: Replicase polyprotein 1ab (Severe acute respiratory syndrome-related coronavirus) (UniProt P0C6X7); assay: Inhibition of SARS coronavirus 3C-like protease cis-cleavage activity transfected in african green monkey Vero cells using SAVLQSGFRK as substrate at 200 uM after 5 hrs by luciferase reporter gene assay relative to control; format: cell-based
[15] = as §2; format: cell-based; conditions: chlorocebus sabaeus, Vero cells

SMILES	inhibition [1]	inhibition [2]	IC50 [3]	CC50 [4]	Ratio CC50/IC50 [5]	inhibition [6]	IC50 [7]	Ki [8]	Activity [9]	Kd [10]	Ratio IC50 [11]	Ratio IC50 [12]	Ratio IC50 [13]	inhibition [14]	CC50 [15]
Oc1cc(O)cc(Oc2c(O)cc(O)c3c2Oc2c(O)cc(Oc4c(O)cc(O)cc4O)cc2O3)c1	Active	Dose-dependent effect	112 µM	> 200 µM	>1.8	Dose-dependent effect	42.1 µM	19.3 µM	–	–	–	–	–	–	–
Oc1cc(O)cc(Oc2c(Oc3c(O)cc(O)cc3O)cc(O)c3c2Oc2c(O)cc(O)cc2O3)c1 [2-PHLOROECKOL]	Active	Dose-dependent effect	112 µM	> 200 µM	>1.8	Dose-dependent effect	13.3 µM	24 µM	–	–	–	–	–	–	–
Oc1cc(O)cc(Oc2c(O)cc(O)c3c2Oc2c(O)cc(Oc4c(O)cc(Oc5c(O)cc(O)c6c5Oc5c(O)cc(O)cc5O6)cc4O)cc2O3)c1 [DIECKOL]	Active	Dose-dependent effect	68.1 µM	> 200 µM	>2.9	Dose-dependent effect	2.7 µM	2.4 µM	Dose-dependent effect	10.3 µM	60	50	30	–	–
Oc1cc(O)c2oc3cc(O)c4oc5cc(O)cc(O)c5oc4c3oc2c1 [DIOXINODEHYDROECKOL]	–	Dose-dependent effect	146 µM	> 200 µM	>1.4	Dose-dependent effect	158 µM	–	–	–	–	–	–	–	–
Oc1cc(O)cc(Oc2c(O)cc(O)c3c2Oc2c(O)cc(O)cc2O3)c1 [ECKOL]	Active	–	–	> 200 µM	<1	Dose-dependent effect	8.8 µM	8.2 µM	–	–	–	–	–	30%	–
Oc1cc(O)c(Oc2cc(O)cc(O)c2Oc2cc(O)cc(O)c2-c2c(O)cc(O)cc2O)c(O)c1 [FUCODIPHLOROETHOL G]	Active	Dose-dependent effect	177 µM	> 200 µM	>1.1	Dose-dependent effect	22.5 µM	63.5 µM	–	–	–	–	–	–	–
COc1ccc([C@@H]2CC(=O)c3c(O)cc(O)cc3O2)cc1O [HESPERETIN]	–	–	–	–	–	–	–	–	–	24.5 µM	–	–	–	–	–
Oc1cc(O)cc(Oc2c(O)cc(O)c3c2Oc2c(O)cc4oc5c(Oc6cc(O)cc(O)c6)c(O)cc(O)c5c4c2O3)c1 [PHLOROFUCOFUROECKOL A]	Active	Dose-dependent effect	175 µM	> 200 µM	>1.1	Dose-dependent effect	16.7 µM	10.6 µM	–	–	–	–	–	–	–
Oc1cc(O)cc(O)c1 [PHLOROGLUCINOL]	–	–	–	> 200 µM	–	–	> 200 µM	–	–	–	–	–	–	–	–
Oc1cc(O)cc(Oc2c(O)cc(Oc3c(O)cc(O)cc3O)cc2O)c1 [TRIPHLORETHOL A]	–	–	–	–	<1	Dose-dependent effect	–	–	–	–	–	–	–	15%	> 200 µM
